Assay results published in article PMC4147340, “Mode and specificity of binding of the small molecule GANT61 to GLI determines inhibition of GLI-DNA binding” (Oncotarget, 2014).

Tests used:
GLI1 (ΔGLI-DM) = biological target: T1, GLI1 (ΔGLI-DM) (Homo sapiens, UniProt P08151, E250A/E298A); assay: SPR, ΔGLI-DM immobilized on Ni-NTA chip, GANT61 […] as analyte; format: binding
T1 sequence (P08151 234-388 E250A/E298A limits assumed): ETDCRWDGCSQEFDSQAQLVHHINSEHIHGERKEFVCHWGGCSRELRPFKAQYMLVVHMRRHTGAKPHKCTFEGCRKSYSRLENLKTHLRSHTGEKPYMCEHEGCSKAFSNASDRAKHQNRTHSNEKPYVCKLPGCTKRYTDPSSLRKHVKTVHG

GLI1 = biological target: T2, GLI1 (Homo sapiens, UniProt P08151); assay: SPR (Biacore […]), GLI1 immobilized on CM5 chip, GANT61 […] as analyte; format: binding
T2 construct: Full length GLI1 (OriGene)
T2 sequence (P08151 1-1106): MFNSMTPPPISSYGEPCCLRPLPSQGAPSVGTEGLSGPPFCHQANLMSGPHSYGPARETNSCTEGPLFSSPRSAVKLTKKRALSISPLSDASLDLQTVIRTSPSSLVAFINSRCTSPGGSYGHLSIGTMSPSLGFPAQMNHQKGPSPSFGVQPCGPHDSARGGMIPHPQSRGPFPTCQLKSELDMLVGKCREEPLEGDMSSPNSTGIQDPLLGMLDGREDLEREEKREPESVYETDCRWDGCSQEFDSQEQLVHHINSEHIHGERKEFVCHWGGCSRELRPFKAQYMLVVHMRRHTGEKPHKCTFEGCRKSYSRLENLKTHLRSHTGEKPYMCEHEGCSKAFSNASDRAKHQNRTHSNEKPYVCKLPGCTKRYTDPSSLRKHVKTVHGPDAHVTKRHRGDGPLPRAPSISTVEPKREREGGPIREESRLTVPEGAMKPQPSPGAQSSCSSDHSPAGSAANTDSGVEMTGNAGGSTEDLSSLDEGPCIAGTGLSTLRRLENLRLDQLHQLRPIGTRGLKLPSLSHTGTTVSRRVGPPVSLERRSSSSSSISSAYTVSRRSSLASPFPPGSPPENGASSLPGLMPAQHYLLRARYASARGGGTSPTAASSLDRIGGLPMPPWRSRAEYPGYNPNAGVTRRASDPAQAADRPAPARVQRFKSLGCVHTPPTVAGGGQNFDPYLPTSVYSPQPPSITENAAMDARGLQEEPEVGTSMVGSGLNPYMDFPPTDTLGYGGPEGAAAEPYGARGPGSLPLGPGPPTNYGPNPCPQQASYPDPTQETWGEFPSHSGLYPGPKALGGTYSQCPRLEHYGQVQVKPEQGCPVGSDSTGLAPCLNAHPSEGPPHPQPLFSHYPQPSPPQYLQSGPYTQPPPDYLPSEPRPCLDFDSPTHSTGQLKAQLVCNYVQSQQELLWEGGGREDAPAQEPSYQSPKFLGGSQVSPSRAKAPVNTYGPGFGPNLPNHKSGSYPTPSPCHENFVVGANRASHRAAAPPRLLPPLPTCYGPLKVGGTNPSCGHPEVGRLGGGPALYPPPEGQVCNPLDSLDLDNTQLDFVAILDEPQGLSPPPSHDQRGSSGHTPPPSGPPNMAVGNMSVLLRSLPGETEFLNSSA

[1] = test system: GLI1 (full length, GLI1-WT); assay: SPR; details: Biacore 3000, HBS-P buffer, 20 ul/min, 3 min association, 5 min dissociation; pH, salt and temperature not stated
[2] = test system: GLI1 (full length, GLI1-WT); assay: SPR inhibition; details: Biacore 3000, HBS-P buffer, 20 ul/min, 3 min association, 5 min dissociation; pH, salt and temperature not stated

Row | Kd (GLI1 (ΔGLI-DM)) | Kd (GLI1) | Compound | Kd [1] | K half [2]
1 | 26.1 µM | 7.5 µM | CN(C)c1ccccc1CN1CCCN(Cc2ccccc2N(C)C)C1c1ccncc1 [GANT61] | – | –
2 | – | – | biotinylated GLI1 DNA-binding sequence (21-mer) | 5.5 µM | 3.2 µM
